In patent US20050096282A1, “Adeno-associated virus-delivered ribozyme compositions and methods for the treatment of retinal diseases” (priority 1997, published 2005):
Where “and” joins values, the source holds several entries; their conditions need not be identical. Equal entries are not always repeated. Entries after “also recorded” stand apart in the source; their conditions may differ.

Assays:
[1] = test system: HREC; experiment: ERK/MAPK activation in HREC, Western blot; format: cell-based, human; details: for effect on NECA-stimulated ERK activation: HREC pretreated with antagonist or inhibitor, then NECA
Description: HREC were serum-starved for 24 hr and pre-treated for 20 min with 1 U/mL adenosine deaminase prior to adding NECA. Activated ERK/MAPK was visualized on Western blots by enhanced chemiluminescence using EC10 monoclonal antibody;
HRECs were serum-starved for 24 hr and pre-treated with adenosine deaminase (ADA, 1 U/mL) for 20 min, incubated with the antagonists in the presence of ADA for 10 min. NECA (1 nM-10 μM, 10 min) was used to activate ERK.
In order to determine the intracellular signaling pathways activated by NECA that regulate ERK activity, we pretreated cells for 30 min with the ERK/MPAK kinase (MEK) inhibitor PD98059 or the PKA inhibitor H-89 and stimulated with NECA for 5 min.
Cells were pre-treated with both antagonists for 10 min and stimulated with increasing concentrations of NECA.

[2] = test system: HREC; experiment: CREB phosphorylation at Ser133 in HREC, western blot; format: cell-based, human; details: HREC pretreated
Excerpt: Phosphorylation of cAMP response element binding protein (CREB) at Ser^133 was examined following NECA stimulation in order to determine whether activation of cAMP pathways by NECA occurred independently of ERK activation. Cells were pretreated with PD98059 or H-89 and assayed for active CREB by western blot.

[3] = test system: HREC; experiment: BrdU incorporation (DNA synthesis) in HRECs; format: cell-based, human; details: for attenuation of NECA-stimulated BrdU incorporation by HRECs: XAC 10 μM, CPX 20 nM, SCH58261 60 nM
Description: (§1) The subtype of adenosine receptor (A2B) that mediates the proliferative effect of adenosine on HREC was determined by the following studies. […] In contrast, neither the A2A adenosine receptor agonist CGS21680 (2-p-(2-carboxyethyl) phenethylamino-5′-N-ethylcarboxamidoadenosine) at concentrations ranging from 10 nM to 10 μM, nor the A1 adenosine receptor agonist CPA (N^6-cyclopentyladenosine) at concentrations ranging from 10 nM to 10 μM increased BrdU incorporation by HRECs. […] In contrast, neither the selective A1 adenosine receptor antagonist CPX (8-cyclopentyl-1,3-dipropylxanthine) at 20 nM, nor the selective A2A adenosine receptor antagonist SCH58261 (5-amino-7-(2-phenylethyl)-2-(2-furyl)-pyrazolo(4,3-E)-1,2,4-trizolo(1,5-c) pyrimidine) at 60 nM attenuated the stimulatory effect of NECA on BrdU incorporation by HRECs. These findings indicate that the proliferative effects of NECA are mediated by the A2B adenosine receptor in HREC in culture (Table 3).

[4] = test system: HREC; experiment: cAMP content of intact HRECs; format: cell-based, human; details: for inhibition of NECA-induced increase in cAMP content in HRECs: NECA 10 μM
Excerpt: The cAMP content of intact HRECs following treatment with adenosine receptor agonists and antagonists was next examined. […] The effect of selective A1 and A2A adenosine receptor antagonists on NECA-induced accumulation of cAMP was also examined.

[5] = test system: adenosine A2b receptor mRNA; experiment: Ribozyme kinetic analysis, A2B; format: biochemical
Excerpt: (§2) The chief characteristic of diabetic retinopathy is retinal neovascularization-the pathologic spread of blood vessels in the eye. Unique ribozymes have been developed which target the mRNAs that encode various proteins involved in this process. These include ribozymes directed at the wild-type mRNA for the adenosine A2b receptor, for IGF-I (insulin-like growth factor-1) receptor, for inducible nitric oxide synthase (iNOS), and for several integrins implicated in retinal neovascularization (e.g., alpha1, alpha3, alphaV). Also shown in Table 7 are the analyses of P347S ribozymes, that are specific for another mutant form of the rod opsin polypeptide.

[6] = test system: alpha3 integrin mRNA; experiment: Ribozyme kinetic analysis, alpha 3 integrin; format: biochemical
Excerpt: as §2

[7] = test system: P347S rod opsin mRNA target AGGCGUCAGCCUA; experiment: Ribozyme kinetic analysis, P347S pig; format: biochemical
Excerpt: as §2

[8] = test system: IGF-I (insulin-like growth factor-1) receptor mRNA; experiment: Ribozyme kinetic analysis, IGF1; format: biochemical; details: target GUACGUCUUCCAU
Excerpt: as §2

[9] = test system: P347S rod opsin mRNA target UGGCCUCGGCCUA; experiment: Ribozyme kinetic analysis, P347S human; format: biochemical; details: mean
Excerpt: as §2

[10] = test system: alpha1 integrin mRNA; experiment: Ribozyme kinetic analysis, alpha 1 integrin; format: biochemical
Excerpt: as §2

[11] = test system: alphaV integrin mRNA; experiment: Ribozyme kinetic analysis, alpha V integrin; format: biochemical
Excerpt: as §2

[12] = test system: HREC; experiment: HREC proliferation, cell count; format: cell-based, human; details: agonist alone, 48 hr
Description: as §1
The data for cell counts were consistent with those for BrdU incorporation. […] These compounds, like XAC, blocked the proliferative effects of NECA as measured by cell counts, supporting that the proliferative effects of NECA on HREC are mediated by the adenosine A2B receptor (Table 3).

[13] = test system: HREC; experiment: HREC chemotaxis; format: cell-based, human
Excerpt: The role of the A2B receptor was further characterized by examining the effects of the A2B antagonists JW V108 and Enprofylline on HREC chemotaxis, capillary tube formation and signal transduction pathways following stimulation with the adenosine analogue NECA.

[14] = per experiment, target CAUGUCUCUUUG
[15] = per experiment, Rz 1 target CUAUGCCUUCAUG, Rz 2 target CGCUGUCUUCCAC
[16] = per experiment, Rz 1 target AGAUGUCUAUAAG, Rz 2 target GAGAGUCUCAUGA
[17] = per experiment, Rz 1 target GCGCGUCUUCCCG, Rz 2 target ACUGGUCUUCUAC

`O=S(=O)(NCCNC/C=C/c1ccc(Br)cc1)c1cccc2cnccc12` [Ribozyme H-89] was tested, and the “effect on NECA-stimulated ERK activation” value [1] was “did not block”, the “basal ERK activation” value ([1]; HREC, CGS 1-10 μM, H-89 30 min pretreatment) was “increased basal ERK activation” and the “CREB activation (phosphorylation) following NECA stimulation” value [2] was “blocked CREB phosphorylation”.

For `Nc1nc2c(cnn2CCc2ccccc2)c2nc(-c3ccco3)nn12` [SCH58261, 5-amino-7-(2-phenylethyl)-2-(2-furyl)-pyrazolo(4,3-E)-1,2,4-trizolo(1,5-c) pyrimidine], the “attenuation of NECA-stimulated BrdU incorporation by HRECs” value [3] was “neither” and the “inhibition of NECA-induced increase in cAMP content in HRECs” value [4] was “not signficantly inhibited”.

Work on “A2B Rz 1: hammerhead ribozyme CAAAGACUGAUGAGCCGUUCGCGGCGAAACAUGU (SEQ ID NO:90), adenosine A2b receptor mRNA (RNA, backbone not given here)” yielded a Km ([5]; mean) of 4.35 µM, a Vmax ([5]; mean) of 541.7 nM/min and a kcat ([5]; mean) of 36.1 min − 1. The Km [5, 14] was 5.07 µM and 3.63 µM, the Vmax [5, 14] was 666.7 nM/min and 416.7 nM/min and the kcat [5, 14] was 44.4 min − 1 and 27.8 min − 1.

“alpha 3 Rz 2: ribozyme GUGGAACUGAUGAGCCGUUCGCGGCGAAACAGCG (SEQ ID NO:93), alpha3 integrin mRNA (RNA, backbone not given here)” gave a Km ([6]; mean) of 1.45 µM, a Vmax ([6]; mean) of 2.5 nM/min and a kcat ([6]; mean) of 0.2 min − 1. The Km [6, 15] was 1.66 µM and 1.24 µM, the Vmax [6, 15] was 2.8 nM/min and 2.2 nM/min and the kcat [6, 15] was 0.2 min − 1.

For `COc1cccc(-c2cc(=O)c3ccccc3o2)c1N` [PD98059], the “effect on NECA-stimulated ERK activation” value [1] was “abolished ERK activation” and the “CREB activation (phosphorylation) following NECA stimulation” value [2] was “did not alter CREB activation”.

“P347S pig: ribozyme UAGGCUCUGAUGAGCCGCUUCGGCGGCAAACGCCU (SEQ ID NO:102), P347S mutant rod opsin mRNA (listed as RNA, chemistry not given here)” was tested, and the Km ([7]; mean) was 2.05 µM, the Vmax ([7]; mean) was 7.3 nM/min and the kcat ([7]; mean) was 1.5 min − 1. The Km ([7]; per experiment) was 1.65 µM and 1.68 µM and 2.84 µM and the kcat ([7]; per experiment) was 1.8 min − 1 and 2.2 min − 1 and 1.3 min − 1 and 1.1 min − 1 and 1.2 min − 1.

“alpha 3 Rz 1: ribozyme CAUGAACUGAUGAGCCGUUCGCGGCGAAACAUAG (SEQ ID NO:92), alpha3 integrin mRNA (RNA, backbone not given here)” gave a Km ([6]; mean) of 4.16 µM, a Vmax ([6]; mean) of 6.2 nM/min and a kcat ([6]; mean) of 0.4 min − 1. The Km [6, 15] was 3.62 µM and 4.69 µM, the Vmax [6, 15] was 5.4 nM/min and 6.9 nM/min and the kcat [6, 15] was 0.4 min − 1 and 0.5 min − 1.

Molecule “IGF1 Rz 2: ribozyme GGAACUGAUGAGCCGUUCGCGGCGAAACGUAC (SEQ ID NO:101), IGF-I receptor mRNA (RNA, backbone not given here)” has a Km [8] of 9.76 µM, a Vmax [8] of 27.6 nM/min and a kcat [8] of 18.4 min − 1.

For `CCCn1c(=O)c2[nH]c(C3CCCC3)nc2n(CCC)c1=O` [CPX, 8-cyclopentyl-1,3-dipropylxanthine], the “attenuation of NECA-stimulated BrdU incorporation by HRECs” value [3] was “neither” and the “inhibition of NECA-induced increase in cAMP content in HRECs” value [4] was “not signficantly inhibited”.

Molecule “P347S human: ribozyme UAGGCCCUGAUGAGCCGCUUCGGCGGCAAAGGCCA (SEQ ID NO:103), P347S mutant rod opsin mRNA (listed as RNA, chemistry not given here)” has a Km [9] of 41.9 µM, a Vmax [9] of 0.00135 nM/min and a kcat [9] of 1.10E−04 min − 1.

“alpha 1 Rz 1: ribozyme CUUAUACUGAUGAGCCGUUCGCGGCGAAACAUCU (SEQ ID NO:96), alpha1 integrin mRNA (RNA, backbone not given here)” showed a Km ([10]; mean) of 25.6 µM, a Vmax ([10]; mean) of 57.0 nM/min and a kcat ([10]; mean) of 3.8 min − 1. For the same molecule, the Vmax [10, 16] was 61.7 nM/min and 52.4 nM/min and the kcat [10, 16] was 4.1 min − 1 and 3.5 min − 1.

In the case of “alpha V Rz 2: ribozyme GUAGAACUGAUGAGCCGUUCGCGGCGAAACCAGU (SEQ ID NO:99), alphaV integrin mRNA (RNA, backbone not given here)”, the Km ([11]; mean) is reported as 11.3 µM, the Vmax ([11]; mean) is reported as 285.7 nM/min and the kcat ([11]; mean) is reported as 19.1 min − 1. For the same molecule, the Km [11, 17] was 8.54 µM and 14 µM, the Vmax [11, 17] was 238.1 nM/min and 333.3 nM/min and the kcat [11, 17] was 15.9 min − 1 and 22.2 min − 1.

For “alpha 1 Rz 2: ribozyme UCAUGACUGAUGAGCCGUUCGCGGCGAAACUCUC (SEQ ID NO:97), alpha1 integrin mRNA (RNA, backbone not given here)”, the Km ([10]; mean) was 42.2 µM, the Vmax ([10]; mean) was 42.2 nM/min and the kcat ([10]; mean) was 2.9 min − 1. For the same molecule, the Km [10, 16] was 30.6 µM and 53.8 µM, the Vmax [10, 16] was 31.0 nM/min and 53.5 nM/min and the kcat [10, 16] was 2.1 min − 1 and 3.6 min − 1.

With `CCNC(=O)[C@H]1O[C@@H](n2cnc3c(N)ncnc32)[C@H](O)[C@@H]1O` [NECA] the “increase in HREC number” value [12] was “concentration-dependent increase in HREC number”, the “increase of BrdU incorporation (DNA synthesis) by HRECs” value ([3]; agonist alone, 48 hr, CGS21680 and CPA 10 nM to 10 μM) was “concentration-dependent increase of DNA synthesis” and the EC50 ([4]; intact HRECs, read-out: EC50 for increase of cAMP content of HRECs) was 24 µM. For the same molecule, the “ERK activation by agonist” value ([1]; HREC, agonist alone) was “dose-dependent increase in ERK activation; also recorded: transient activation of ERK” and the “HREC chemotaxis induced by agonist” value [13] was “induced HREC chemotaxis in a concentration-dependent manner”.

With “alpha V Rz 1: ribozyme CGGGAACUGAUGAGCCGUUCGCGGCGAAACGCGC (SEQ ID NO:98), alphaV integrin mRNA (RNA, backbone not given here)” the Km ([11]; mean) was 5.2 µM, the Vmax ([11]; mean) was 33.4 nM/min and the kcat ([11]; mean) was 2.2 min − 1. For the same molecule, the Km [11, 17] was 4.98 µM and 5.41 µM, the Vmax [11, 17] was 30.5 nM/min and 36.2 nM/min and the kcat [11, 17] was 2.0 min − 1 and 2.4 min − 1.
